Experimental data reported in PubChem BioAssay AID330 (DTP/NCI, 2004).
Several values for one entry are separate records, joined by “and”; a condition that tells them apart may be missing. Identical values can stand only once. Inconclusive results and toxic doses are left out. Square brackets hold non-standard residues; d marks the D form. Peptide text beside a SMILES is read from it. Nva = CCC[CH](N)C(=O)O

Tested on: P388 leukemia ip, CD2F1 mice, survival T/C
Experiment: NCI In Vivo Anticancer Drug Screen. Data for tumor model P388 Leukemia (intraperitoneal) in CD2F1 (CDF1) mice
Details: endpoint: median survival time, higher = longer survival
Outline: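 Mice carrying the transplanted tumor received test compound or vehicle. Survival was recorded in each group, and the value is the treated-group measurement divided by that of the vehicle-treated control group.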

[1] = dose: 50.0 mg/kg/injection, schedule: Q01DX005 (ip), vehicle: saline with Tween-80
[2] = dose: 100.0 mg/kg/injection, schedule: Q01DX005 (ip), vehicle: saline with Tween-80
[3] = dose: 60.0 mg/kg/injection, schedule: Q01DX005 (ip), vehicle: saline with Tween-80
[4] = dose: 120.0 mg/kg/injection, schedule: Q01DX005 (ip), vehicle: saline with Tween-80

Compound: CCCC(N)C(=O)NC(C(=O)O)C(C)C (stereo not drawn) (H-[Nva]-Val-OH; configuration not given here)
- T/C (dose: 50.0 mg/kg/injection, schedule: Q01DX009 (ip), vehicle: saline): 100 % of control
- T/C (dose: 100.0 mg/kg/injection, schedule: Q01DX009 (ip), vehicle: saline): 103 % of control
- T/C (dose: 200.0 mg/kg/injection, schedule: Q01DX009 (ip), vehicle: saline): 100 % of control

Compound: O=C1CN(c2ccccc2)CC(=O)N2Cc3ccccc3CN12
- T/C (dose: 6.25 mg/kg/injection, schedule: Q01DX005 (ip), vehicle: saline with Tween-80): 96 % of control
- T/C (dose: 12.5 mg/kg/injection, schedule: Q01DX005 (ip), vehicle: saline with Tween-80): 100 % of control
- T/C (dose: 25.0 mg/kg/injection, schedule: Q01DX005 (ip), vehicle: saline with Tween-80): 98 % of control

Compound: CC1=NC(C)(Cc2ccccc2)SC1c1ccccc1 (stereo not drawn)
- T/C [1]: 110 % of control
- T/C (dose: 50.0 mg/kg/injection, schedule: Q01DX005 (ip), vehicle: saline): 100 % of control
- T/C [2]: 96 % of control
- T/C (dose: 100.0 mg/kg/injection, schedule: Q01DX005 (ip), vehicle: saline): 106 % of control
- T/C (dose: 200.0 mg/kg/injection, schedule: Q01DX005 (ip), vehicle: saline): 101 % of control

Compound: Nc1nnc2nc(C(C(=O)c3ccc(Cl)cc3Cl)c3nc4nnc(N)n4[nH]c3=O)c(=O)[nH]n12
- T/C [1]: 92 % of control
- T/C [2]: 100 % of control
- T/C (dose: 200.0 mg/kg/injection, schedule: Q01DX005 (ip), vehicle: saline with Tween-80): 100 % of control

Compound: CCNC1=CC(=O)c2ncccc2C1=O
- T/C (dose: 3.13 mg/kg/injection, schedule: Q01DX009 (ip), vehicle: DMSO): 99 % of control
- T/C (dose: 6.25 mg/kg/injection, schedule: Q01DX009 (ip), vehicle: DMSO): 100 % of control
- T/C (dose: 12.5 mg/kg/injection, schedule: Q01DX009 (ip), vehicle: DMSO): 99 % of control
- T/C (dose: 25.0 mg/kg/injection, schedule: Q01DX009 (ip), vehicle: DMSO): 95 % of control

Compound: c1ccc2c3c([nH]c2c1)C1CC2CCCCC2CN1CC3 (stereo not drawn)
- T/C [3]: 94 % of control
- T/C [4]: 111 % of control

Compound: c1ccc2c(c1)ccc1c2nnc2nnnn21
- T/C (dose: 50.0 mg/kg/injection, schedule: Q01DX009 (ip), vehicle: Klucel (hydroxypropylcellulose) (HPC)): 104 % of control
- T/C (dose: 100.0 mg/kg/injection, schedule: Q01DX009 (ip), vehicle: Klucel (hydroxypropylcellulose) (HPC)): 105 % of control
- T/C (dose: 200.0 mg/kg/injection, schedule: Q01DX009 (ip), vehicle: Klucel (hydroxypropylcellulose) (HPC)): 95 % of control

Compound: OC(CN(Cc1nc2ccccc2[nH]1)Cc1nc2ccccc2[nH]1)CN(Cc1nc2ccccc2[nH]1)Cc1nc2ccccc2[nH]1
- T/C [3]: 115 % of control
- T/C [4]: 115 % of control

Compound: CC(C)(C)NC1=NCCNC(c2ccccc2)=C1
- T/C (dose: 6.25 mg/kg/injection, schedule: Q01DX005 (ip), vehicle: saline): 98 % of control
- T/C (dose: 12.5 mg/kg/injection, schedule: Q01DX005 (ip), vehicle: saline): 100 % of control
- T/C (dose: 25.0 mg/kg/injection, schedule: Q01DX005 (ip), vehicle: saline): 92 % of control

Compound: NC(=O)N1CCC2c3ccccc3NC(=S)N21 (stereo not drawn)
- T/C (dose: 100.0 mg/kg/injection, schedule: Q01DX001 (ip), vehicle: saline with Tween-80): 102 % of control
- T/C (dose: 200.0 mg/kg/injection, schedule: Q01DX001 (ip), vehicle: saline with Tween-80): 99 % of control
- T/C (dose: 400.0 mg/kg/injection, schedule: Q01DX001 (ip), vehicle: saline with Tween-80): 99 % of control

Compound: CC(=O)Oc1ccc(=O)[nH]c1
- T/C (dose: 12.5 mg/kg/injection, schedule: Q01DX009 (ip), vehicle: saline): 100 % of control and 105 % of control

Compound: N#Cc1ccccc1NN=Nc1ccccc1-c1nc(N)nc(N)n1
- T/C (dose: 12.0 mg/kg/injection, schedule: Q04DX003 (ip), vehicle: saline): 113 % of control
- T/C (dose: 25.0 mg/kg/injection, schedule: Q04DX003 (ip), vehicle: saline): 113 % of control
- T/C (dose: 50.0 mg/kg/injection, schedule: Q04DX003 (ip), vehicle: saline): 181 % of control

Compound: Cc1c2cnccc2c(C)c2c1c1ccccc1n2CCCCCCCCCCn1c2ccccc2c2c(C)c3cnccc3c(C)c21
- T/C (dose: 25.0 mg/kg/injection, schedule: Q04DX002 (ip), vehicle: saline with Tween-80): 98 % of control
- T/C (dose: 50.0 mg/kg/injection, schedule: Q04DX002 (ip), vehicle: saline with Tween-80): 92 % of control
- T/C (dose: 100.0 mg/kg/injection, schedule: Q04DX002 (ip), vehicle: saline with Tween-80): 89 % of control

Compound: NC(=O)C(N)C(F)c1ccccc1 (stereo not drawn)
- T/C [3]: 102 % of control
- T/C [4]: 95 % of control

Compound: C/C(=N\NC(=S)N1CCCC1)c1cccc(C)n1
- T/C (dose: 12.5 mg/kg/injection, schedule: Q01DX005 (ip), vehicle: saline + Tween-80 + alcohol): 104 % of control and 106 % of control
- T/C (dose: 25.0 mg/kg/injection, schedule: Q01DX005 (ip), vehicle: saline + Tween-80 + alcohol): 108 % of control and 113 % of control
- T/C (dose: 50.0 mg/kg/injection, schedule: Q01DX005 (ip), vehicle: saline + Tween-80 + alcohol): 122 % of control
